Reference: patent US11517574B2 (priority 2017, dated 2022)
In brackets after ≈: the same amount, converted by molar mass.

Experiments:
[1] = Gamma irradiation: appearance and chemical stability (UPLC)
[2] = Suspension of milled linezolid Form II and Form III in poloxamer vehicle; assay type: physicochemical; details: 50 mg in one mL poloxamer vehicle, manual shaking one minute
Description: 50 mg of each form was weighed and one mL of poloxamer vehicle was added. The particles were re-suspended by manual shaking for one minute.

[3] = Dry heat sterilization: appearance and chemical stability (UPLC)
[4] = Particle size distribution by laser diffraction; assay type: physicochemical; details: dispersive pressure 3 bar
Excerpt: Different crystal forms of linezolid were chosen and tested for their feasibility of suspension. Two crystal modifications (polymorphs) of Linezolid: Form II (FII) and Form III (FIII) were obtained from Symed labs Ltd (India). Approximately, 1 g each of FII and FIII was jet milled using a LaboMill jet miller (F.P.S. Food and Pharma Systems s.r.l, Italy) with an injection line pressure at 7 bar and the grind line at 4 bar. The particle size distribution of the raw and air-jet milled material was analyzed by laser diffraction (Sympatec GmbH, Helos Disperse). 5 mg of each sample was placed in a dry powder disperser (RODOS/M). A reference measurement was taken before running each sample for 5 sec at 2% optical concentration. The results were obtained at a pressure of 3 bars using lenses, R1 (0.18-0.35 μm) and R2 (0.25/0.45-87.5 μm) (Table 4). The data was collected using HELOS sensor and analyzed using Windox5 software.
The particle size distribution of the raw and air-jet milled material was analyzed by laser diffraction (Sympatec GmbH, Helos Disperse). The data on the size distribution for unmilled powder (R1) and milled powder (R4) were collected and analyzed. Air jet milling reduced the particle size from D10 4 to 6 μm (D10, 10% of the mass of the sample is comprised of particles with diameter less than this range) and D90 40 to 50 μm (D90, 90% of the mass of the sample is comprised of particles with is diameter less than this range) particle size distribution to a D10 0.4 to 0.50 μm and D90 4 to 5 μm.

Gram-positive bacteria = details: cited from earlier work
[5] = Nitrogen, no irradiation (—), Cold
[6] = Nitrogen, no irradiation (—), RT

## CC(=O)NC[C@H]1CN(c2ccc(N3CCOCC3)c(F)c2)C(=O)O1 [FII, (S)—N-[[3-[3-fluoro-4-(4-morpholinyl)phenyl]-2-oxo-5-oxazolidinyl]methyl] acetamide]
[1]; Air, 15 KGy, Cold
  Stability % 25° C. day 28: 99.4%
  Stability % 40° C. day 28: 98.0%
  Stability % t = 0: 99%
[1]; Air, 15 KGy, RT
  Stability % 25° C. day 28: 99.4%
  Stability % 40° C. day 28: 99.1%
  Stability % t = 0: 99.5%
[1]; Air, 25 KGy, Cold
  Stability % 25° C. day 28: 99.6%
  Stability % 40° C. day 28: 99.7%
  Stability % t = 0: 100%
[1]; Air, 25 KGy, RT
  Stability % 25° C. day 28: 100%
  Stability % 40° C. day 28: 98.9%
  Stability % t = 0: 100%
[1]; Air, no irradiation (—), Cold
  Stability % 25° C. day 28: 98.1%
  Stability % 40° C. day 28: 99.6%
  Stability % t = 0: 100%
[1]; Air, no irradiation (—), RT
  Stability % 25° C. day 28: 99.5%
  Stability % 40° C. day 28: 100.1%
  Stability % t = 0: 100%
[1]; Nitrogen, 15 KGy, Cold
  Stability % 25° C. day 28: 97.5%
  Stability % 40° C. day 28: 99.3%
  Stability % t = 0: 100%
[1]; Nitrogen, 15 KGy, RT
  Stability % 25° C. day 28: 98.8%
  Stability % 40° C. day 28: 99.5%
  Stability % t = 0: 100%
[1]; Nitrogen, 25 KGy, Cold
  Stability % 25° C. day 28: 100%
  Stability % 40° C. day 28: 99.3%
  Stability % t = 0: 100%
[1]; Nitrogen, 25 KGy, RT
  Stability % 25° C. day 28: 99.6%
  Stability % 40° C. day 28: 99.4%
  Stability % t = 0: 100.5%
[1]; [5]
  Stability % 25° C. day 28: 99.6%
  Stability % 40° C. day 28: 99%
  Stability % t = 0: 100%
[1]; [6]
  Stability % 25° C. day 28: 98.7%
  Stability % 40° C. day 28: 97.7%
  Stability % t = 0: 99.5%
[2]
  Suspension behaviour of air jet milled particles: dispersed uniformly
[3]; dry heat 120° C., 20 hr
  Appearance: Powder
  Chemical Stability % expected parent (2-8° C. (control) t = 0): 100%
[3]; dry heat 120° C., 50 hr
  Appearance: Powder
  Chemical Stability % expected parent (2-8° C. (control) t = 0): 99%
[3]; dry heat 130° C., 8 hr
  Appearance: Yellow
  Chemical Stability % expected parent (2-8° C. (control) t = 0): 39%
[3]; dry heat 130° C., 20 hr
  Appearance: Yellow
  Chemical Stability % expected parent (2-8° C. (control) t = 0): 26%
[3]; dry heat 130° C., 50 hr
  Appearance: Yellow
  Chemical Stability % expected parent (2-8° C. (control) t = 0): 19%
[3]; dry heat 140° C., 4 hr
  Appearance: Yellow
  Chemical Stability % expected parent (2-8° C. (control) t = 0): 52%
[3]; dry heat 140° C., 8 hr
  Appearance: Powder
  Chemical Stability % expected parent (2-8° C. (control) t = 0): 97%
[3]; dry heat 140° C., 20 hr
  Appearance: Yellow
  Chemical Stability % expected parent (2-8° C. (control) t = 0): 17%
[3]; dry heat 160° C., 2 hr
  Appearance: Yellow
  Chemical Stability % expected parent (2-8° C. (control) t = 0): 16%
[4]; Jet milled
  Particle size distribution X10: 0.61 ± 0.01 μm
  Particle size distribution X50: 1.79 ± 0.03 μm
  Particle size distribution X90: 3.95 ± 0.04 μm
  VMD (Volume mean diameter in μm): 2.07 μm
[4]; Raw (pre-milled)
  Particle size distribution X10: 0.94 μm
  Particle size distribution X50: 3.79 μm
  Particle size distribution X90: 44.75 μm
  VMD (Volume mean diameter in μm): 14.70 μm

## CC(=O)NC[C@H]1CN(c2ccc(N3CCOCC3)c(F)c2)C(=O)O1 [FIII]
[2]; listed as Form III
  Suspension behaviour of air jet milled particles: formed lumps and were not evenly distributed
[4]; Jet milled
  Particle size distribution X10: 0.63 ± 0.01 μm
  Particle size distribution X50: 2.06 ± 0.02 μm
  Particle size distribution X90: 4.50 ± 0.12 μm
  VMD (Volume mean diameter in μm): 2.38 μm
[4]; Raw (pre-milled)
  Particle size distribution X10: 1.03 μm
  Particle size distribution X50: 4.33 μm
  Particle size distribution X90: 11.46 μm
  VMD (Volume mean diameter in μm): 5.52 μm

## CC(=O)NC[C@H]1CN(c2ccc(N3CCOCC3)c(F)c2)C(=O)O1 [Linezolid, (S)—N-[[3-[3-fluoro-4-(4-morpholinyl)phenyl]-2-oxo-5-oxazolidinyl]methyl] acetamide]
Gram-positive bacteria
  MIC: 4 µg/mL (≈ 11.9 µM)
